Assay results published in the NIST ThermoML archive (doi:10.1016/j.tca.2018.11.020).

Experiments:
[1] = Adiabatic calorimetry
[2] = Molar enthalpy of transition or fusion; conditions: Crystal; Adiabatic calorimetry
[3] = molar heat capacity at constant pressure; conditions: 101.33 kPa, Vacuum adiabatic calorimetry

CC(C)O [propan-2-ol]
[1]
Conditions | Glass transition temperature [°C] | Triple point temperature [K]
Crystal | – | 184.7
Glass | -156.0 | –

Conditions | Molar enthalpy of transition or fusion [kcal/mol]
[2] | 1.27

[3]
Conditions | molar heat capacity at constant pressure [J/K/mol]
85 K, Glass | 51.12
90 K, Glass | 53.51
95 K, Glass | 56.01
100 K, Crystal | 54.18
100 K, Glass | 58.63
105 K, Crystal | 56.19
105 K, Glass | 61.36
110 K, Crystal | 58.21
110 K, Glass | 64.24
115 K, Crystal | 60.23
120 K, Crystal | 62.27
120 K, Metastable liquid | 103.93
125 K, Crystal | 64.31
125 K, Metastable liquid | 103.76
130 K, Crystal | 66.36
130 K, Metastable liquid | 103.51
135 K, Crystal | 68.41
135 K, Metastable liquid | 103.26
140 K, Crystal | 70.47
145 K, Crystal | 72.55
150 K, Crystal | 74.62
155 K, Crystal | 76.7
160 K, Crystal | 78.79
165 K, Crystal | 80.88
